Results reported in US7947854B2, “Bis-cationic compounds and use thereof” (The University of Sydney, priority 2003, dated 2011).
Several values for one entry are separate records, joined by “and”; a condition that tells them apart may be missing. Identical values can stand only once. Like-named read-outs stand apart in the source and are kept apart here.

What was measured:
erythrocyte = format: cell-based; details: 37° C., 1 h
Method: Human blood was collected in 10 mL Vacutainer tubes containing potassium-EDTA as anticoagulant. The blood from each vacutainer was transferred to a 50 mL centrifuge tube and the cells washed three times with calcium- and magnesium-free phosphate buffered saline (PBS) (Gibco) by centrifugation at 2000×g for 15 min. The third supernatant was clear and colourless. Cells were stored in PBS for up to two weeks. The cell suspension in PBS (0.5 mL) was mixed with a stock solution of test substance (0.5 mL) at the appropriate concentration (final erythrocyte concentration of approx. 0.5×10^9 per mL). The mixtures were incubated at 37° C. for 1 h with gentle shaking, then centrifuged at 2000×g for 10 min. The supernatant was diluted 10-fold with PBS and the optical density measured at 540 nm. The values for 0% and 100% lysis were determined by incubating cells with PBS or 0.1% Triton X-100 (in water), respectively. Assays were carried out in triplicate.

M. gypseum = experiment: Susceptibility of dermatophytes, broth microdilution NCCLS M38-P; format: cell-based; details: for MIC: Nannizzia gypsea
Method: (§1) Isolates were tested using the method described in the National Committee for Clinical Laboratory Standards (NCCLS) document M38-P for filamentous fungi, with dermatophyte specific modifications described by Fernández-Torres et al, Current topics in Medical Mycology, 14-19 Feb. 1999.
(§2) Five dermatophyte isolates were, namely; T. rubrum, T. mentagrophytes, T. tonsurans, M. canis and M. gypseum, all of which produce lipases and some, phospholipase. These isolates were tested by the broth microdilution method according to NCCLS document M38-P, for activity against selected antifungal agents. In addition, ten randomly selected isolates of T. tonsurans were also tested. All isolates were maintained on SDA at 28° C. Candida parapsilosis (ATCC 20019) was used as the reference control is organism.
(§3) The microdilution plates used were a single lot of RPMI 1640 basal medium (JRH bioScience Inc. Lenexa, Kans., USA) with L-glutamine and without sodium bicarbonate, buffered to pH 7.0, at 25° C., with 0.165 M (MOPS) morpholinepropanesulfonic acid (Sigma).
(§4) Powdered drugs were dissolved in 100% dimethyl sulfoxide (DMSO), at concentrations 100 times higher than the final test concentration. All compounds were prepared in 100% (DMSO). For ITRA and TRB, two-fold drug dilutions were prepared in 100% DMSO at 100 times the final concentration, followed by further dilution 1:50 in RPMI medium, to yield 2× the final strength required for the test.
(§5) Fungal cultures were subcultured onto Potato Dextrose Agar and grown at 28° C. for 7-10 days. Fungal suspensions were covered with 5 ml of distilled water, and then colonies were scraped off with cotton tipped swabs. The resulting mixture of conidia and hyphae elements was withdrawn, transferred to a sterile tube and then vortexed with glass beads. After the particles settled, the upper homogeneous suspension was collected and its density adjusted by a densitometer to a 0.5 McFarland standard at the wavelength of 530 nm (80-85% transmittance). These stock suspensions were then diluted 1:50 with RPMI medium to obtain final working inoculum concentration ranging from 0.3×10^4 to 9×10^4 CFU/ml. Inoculum quantification was performed by plating 100 μl of the 1:1000 dilution of the adjusted inoculum on SDA plates, incubated at 28° C., and after 7 days of incubation, the colonies were counted.
(§6) Testing was based on NCCLS M38-P document for testing filamentous moulds. Testing was carried out in sterile 96-well flat bottomed microtitre plate. Columns 1 and 3 to 12 were filled with 100 μl of RPMI medium, leaving column 2 unfilled. Columns 1, 2 and 3 were filled with 100 μl of 2× drug concentration. Serial dilutions were then made by transferring 100 μl from column 3 to each column up to column 11, and 100 μl from column 11 was discarded. Column 12 served as drug free growth control. Finally, 100 μl of inoculum suspension was added to all wells except column 1, which acted as sterility control (Columns 1 and 12 served as sterility and growth control respectively). Plates were incubated at 28° C. for 7 days, and read at 3 days and 7 days of incubation. All testing was performed in duplicate, on three separate occasions.
(§7) Growth in microtitre trays were read by visual inspection by using an illuminated-reversed mirror. Growth in each well was compared with the “growth control” drug free well. The MIC end point for all the drugs was chosen to be the first well with 100% growth inhibition (i.e. the lowest drug concentration inhibiting growth).

M. canis = experiment: as above; format: cell-based; details: for MIC: Microsporum canis
Method: as §1, §2, §3, §4, §5, §6, §7

T. rubrum = experiment: as above; format: cell-based; details: for MIC: Trichophyton rubrum
Method: as §1, §2, §3, §4, §5, §6, §7

T. tonsurans = experiment: as above; format: cell-based; details: for MIC: Trichophyton tonsurans
Method: as §1, §2, §3, §4, §5, §6, §7

[1] = target: T1, Porcine pancreatic phospholipase A2 (Sus scrofa, UniProt P00592); experiment: Pancreatic phospholipase assay; format: biochemical; details: read-out: ppPLA2, percentage inhibition of activity
T1 construct: purchased Sigma, St. Louis MO, USA
T1 sequence (P00592 23-146): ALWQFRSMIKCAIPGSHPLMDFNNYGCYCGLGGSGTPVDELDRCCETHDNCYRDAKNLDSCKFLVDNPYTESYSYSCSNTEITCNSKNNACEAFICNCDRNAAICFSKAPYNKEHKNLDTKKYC
Method: Pancreatic phospholipase assay. Porcine pancreatic phospholipase A2 suspension in 3.2M ammonium sulfate (2.9 mg protein/mL, Sigma St.Louis Mo., USA) was used. One part of well mixed enzyme suspension was added to 4 parts of buffer (10 mM Tris/HCl, pH 8.2; 10 mM CaCl2. Activity and inhibition by test compounds was then measured by the radiometric method described in Example 2 for fungal PLB activity. However, 25 μL enzyme solution was used, and the reaction time was 1 hour. These conditions result in ˜60% substrate conversion in the inhibitor-free control.

Structure (SMILES) | Haemolytic assay (%) (erythrocyte; 3.5 μM) | Haemolytic assay (%) (erythrocyte; 35 μM) | Haemolytic assay (%) (erythrocyte; 88 μM) | Haemolytic assay (%) (erythrocyte; 175 μM) | Haemolytic assay (%) (erythrocyte; 350 μM) | inhibition at 0.25 µM [1] [%] | inhibition at 2.5 µM [1] [%] | inhibition at 25 µM [1] [%] | inhibition at 250 µM [1] [%] | further results
CCCC[N+](CCCC)(CCCC)CCCCCCCCCCCC[N+](CCCC)(CCCC)CCCC [1,12-Bis-(tributylammonium)dodecane dichloride] | 0 | 0 | 0 | 5 | 100 |  |  |  |  | MIC (M. gypseum; Table 9, read-out: MIC M. gypseum): 3.8 µg/mL and 6.3 µM; MIC (M. canis; Table 9, read-out: MIC M. canis): 5.7 µg/mL and 9.4 µM; MIC (T. rubrum; Table 9, read-out: MIC T. rubrum): 5.7 µg/mL and 9.4 µM; MIC (T. tonsurans; Table 9, read-out: MIC T. tonsurans): 3.8 µg/mL and 6.2 µM
CCCC[P+](CCCC)(CCCC)CCCCCCCCCCCC[P+](CCCC)(CCCC)CCCC [Compound 1, 1,12-bis(tributylphosphonium)dodecane dibromide] | 0 | 0 | 0 | 0 | 0 | 0 | 5 | 62 | 97 | Haemolytic assay (%) (erythrocyte; 700 μM): 75%
CCCC[N+](CCCC)(CCCC)CCCCCCCCCCCC[N+](CCCC)(CCCC)CCCC [Compound 3, 1,12-bis(tributylammonium)do-decane dibromide] |  |  |  |  |  | 0 | 0 | 36 | 86 | MIC Range, M. gypseum (M. gypseum; 100% growth inhibition, 28° C.): 1.9 to 7.6 µg/mL; MIC (M. gypseum; 100% growth inhibition, 28° C., read-out: MIC GM, M. gypseum): 3.8 µg/mL; MIC (M. gypseum; 100% growth inhibition, 28° C., read-out: MIC Mean, M. gypseum): 4.75 µg/mL; MIC Range, M. canis (M. canis; 100% growth inhibition, 28° C.): 3.8 to 7.6 µg/mL; MIC (M. canis; 100% growth inhibition, 28° C., read-out: MIC GM, M. canis): 6.03 µg/mL; MIC (M. canis; 100% growth inhibition, 28° C., read-out: MIC Mean, M. canis): 6.33 µg/mL; MIC Range, T. rubrum (T. rubrum; 100% growth inhibition, 28° C.): 3.8 to 7.6 µg/mL; MIC (T. rubrum; 100% growth inhibition, 28° C., read-out: MIC GM, T. rubrum): 5.37 µg/mL; MIC (T. rubrum; 100% growth inhibition, 28° C., read-out: MIC Mean, T. rubrum): 5.7 µg/mL; MIC Range, T. tonsurans (T. tonsurans; 100% growth inhibition, 28° C.): 1.9 to 7.6 µg/mL; MIC (T. tonsurans; 100% growth inhibition, 28° C., read-out: MIC GM, T. tonsurans): 3.38 µg/mL; MIC (T. tonsurans; 100% growth inhibition, 28° C., read-out: MIC Mean, T. tonsurans): 3.8 µg/mL
